Legend:
[1] = tested on: HOP-92 (Non-Small Cell Lung Cancer); assay: NCI DTP tumor cell line screen (SRB), HOP-92
Method: (§1) For a typical screening experiment, cells are inoculated into 96 well microtiter plates in 100 μL at plating densities ranging from 5,000 to 40,000 cells/well depending on the doubling time of individual cell lines. After cell inoculation, the microtiter plates are incubated at 37° C., 5% CO2, 95% air and 100% relative humidity for 24 h prior to addition of experimental drugs.
(§2) After 24 h, two plates of each cell line are fixed in situ with TCA, to represent a measurement of the cell population for each cell line at the time of drug addition (Tz). Experimental drugs are solubilized in dimethyl sulfoxide at 400-fold the desired final maximum test concentration and stored frozen prior to use. At the time of drug addition, an aliquot of frozen concentrate is thawed and diluted to twice the desired final maximum test concentration with complete medium containing 50 μg/ml gentamicin. Additional four, 10-fold or ½ log serial dilutions are made to provide a total of five drug concentrations plus control. Aliquots of 100 μl of these different drug dilutions are added to the appropriate microtiter wells already containing 100 μl of medium, resulting in the required final drug concentrations.
(§3) Following drug addition, the plates are incubated for an additional 48 h at 37° C., 5% CO2, 95% air, and 100% relative humidity. For adherent cells, the assay is terminated by the addition of cold TCA. Cells are fixed in situ by the gentle addition of 50 μl of cold 50% (w/v) TCA (final concentration, 10% TCA) and incubated for 60 minutes at 4° C. The supernatant is discarded, and the plates are washed five times with tap water and air dried. Sulforhodamine B (SRB) solution (1001) at 0.4% (w/v) in 1% acetic acid is added to each well, and plates are incubated for 10 minutes at room temperature. After staining, unbound dye is removed by washing five times with 1% acetic acid and the plates are air dried. Bound stain is subsequently solubilized with 10 mM trizma base, and the absorbance is read on an automated plate reader at a wavelength of 515 nm. For suspension cells, the methodology is the same except that the assay is terminated by fixing settled cells at the bottom of the wells by gently adding 50 μl of 80% TCA (final concentration, 16% TCA). Using the seven absorbance measurements [time zero, (Tz), control growth, (C), and test growth in the presence of drug at the five concentration levels (Ti)], the percentage growth is calculated at each of the drug concentrations levels. Percentage growth inhibition is calculated as: [(Ti−Tz)/(C−Tz)]×100 for concentrations for which Ti>/=Tz [(Ti−Tz)/Tz]×100 for concentrations for which Ti<Tz
(§4) Three dose response parameters are calculated for each experimental agent. […] The drug concentration resulting in total growth inhibition (TGI) is calculated from Ti=Tz. […] Values are calculated for each of these three parameters if the level of activity is reached; however, if the effect is not reached or is exceeded, the value for that parameter is expressed as greater or less than the maximum or minimum concentration tested.

IGROV1 (Ovarian Cancer) = assay: NCI DTP tumor cell line screen (SRB), IGROV1
Method: as §1, §2, §3, §4

OVCAR-5 (Ovarian Cancer) = assay: NCI DTP tumor cell line screen (SRB), OVCAR-5
Method: as §1, §2, §3, §4

RXF 393 (Renal Cancer) = assay: NCI DTP tumor cell line screen (SRB), RXF 393; settings: RXF 393
Method: as §1, §2, §3, §4

COLO 205 (Colon Cancer) = assay: NCI DTP tumor cell line screen (SRB), COLO 205
Method: as §1, §2, §3, §4

SK-MEL-5 (Melanoma) = assay: NCI DTP tumor cell line screen (SRB), SK-MEL-5
Method: as §1, §2, §3, §4

[2] = tested on: MDA-MB-435 (Breast Cancer); assay: NCI DTP tumor cell line screen (SRB), MDA-MB-435
Method: as §1, §2, §3, §4

[3] = tested on: MDA-MB-231/ATCC (Breast Cancer); assay: NCI DTP tumor cell line screen (SRB), MDA-MB-231/ATCC
Method: as §1, §2, §3, §4

`NCC(=O)Nc1ccc(-n2nc(C(F)(F)F)cc2-c2ccc3c(ccc4ccccc43)c2)cc1` [Compound 70, 2-Amino-N-{4-[5-(2-phenanthrenyl)-3-(trifluoromethyl)-1H-pyrazol-1-yl]-phenyl}-acetamide] was tested, and the TGI [1] was 3.07E−06, the “Mean Optical Densities” value ([1]; Log10 Concentration −4.0) was 0.267 and the “Mean Optical Densities” value ([1]; Log10 Concentration −5.0) was 0.095. The “Percent Growth” value ([1]; Log10 Concentration −5.0) was −91%, the “Mean Optical Densities” value ([1]; Log10 Concentration −6.0) was 1.465 and the “Percent Growth” value ([1]; Log10 Concentration −6.0) was 87%. For the same compound, the “Mean Optical Densities” value ([1]; Log10 Concentration −7.0) was 1.474, the “Percent Growth” value ([1]; Log10 Concentration −7.0) was 89% and the “Mean Optical Densities” value ([1]; Log10 Concentration −8.0) was 1.509. The “Percent Growth” value ([1]; Log10 Concentration −8.0) was 96%, the TGI (IGROV1 (Ovarian Cancer)) was 3.97E−06 and the “Mean Optical Densities” value (IGROV1 (Ovarian Cancer); Log10 Concentration −4.0) was 0.302. The “Mean Optical Densities” value (IGROV1 (Ovarian Cancer); Log10 Concentration −5.0) was 0.235, the “Percent Growth” value (IGROV1 (Ovarian Cancer); Log10 Concentration −5.0) was −49% and the “Mean Optical Densities” value (IGROV1 (Ovarian Cancer); Log10 Concentration −6.0) was 0.902. For the same compound, the “Percent Growth” value (IGROV1 (Ovarian Cancer); Log10 Concentration −6.0) was 74%, the “Mean Optical Densities” value (IGROV1 (Ovarian Cancer); Log10 Concentration −7.0) was 1.103 and the “Percent Growth” value (IGROV1 (Ovarian Cancer); Log10 Concentration −7.0) was 107%. For the same compound, the “Mean Optical Densities” value (IGROV1 (Ovarian Cancer); Log10 Concentration −8.0) was 1.044, the “Percent Growth” value (IGROV1 (Ovarian Cancer); Log10 Concentration −8.0) was 97% and the TGI (OVCAR-5 (Ovarian Cancer)) was 3.32E−06. For the same compound, the “Mean Optical Densities” value (OVCAR-5 (Ovarian Cancer); Log10 Concentration −4.0) was 0.149, the “Mean Optical Densities” value (OVCAR-5 (Ovarian Cancer); Log10 Concentration −5.0) was 0.087 and the “Percent Growth” value (OVCAR-5 (Ovarian Cancer); Log10 Concentration −5.0) was −83%. The “Mean Optical Densities” value (OVCAR-5 (Ovarian Cancer); Log10 Concentration −6.0) was 1.412, the “Percent Growth” value (OVCAR-5 (Ovarian Cancer); Log10 Concentration −6.0) was 90% and the “Mean Optical Densities” value (OVCAR-5 (Ovarian Cancer); Log10 Concentration −7.0) was 1.540. The “Percent Growth” value (OVCAR-5 (Ovarian Cancer); Log10 Concentration −7.0) was 103%, the “Mean Optical Densities” value (OVCAR-5 (Ovarian Cancer); Log10 Concentration −8.0) was 1.480 and the “Percent Growth” value (OVCAR-5 (Ovarian Cancer); Log10 Concentration −8.0) was 97%. The “Mean Optical Densities” value (RXF 393 (Renal Cancer); Log10 Concentration −4.0) was 0.441, the “Mean Optical Densities” value (RXF 393 (Renal Cancer); Log10 Concentration −5.0) was 0.177 and the “Percent Growth” value (RXF 393 (Renal Cancer); Log10 Concentration −5.0) was −56%. For the same compound, the “Mean Optical Densities” value (RXF 393 (Renal Cancer); Log10 Concentration −6.0) was 0.628, the “Percent Growth” value (RXF 393 (Renal Cancer); Log10 Concentration −6.0) was 56% and the “Mean Optical Densities” value (RXF 393 (Renal Cancer); Log10 Concentration −7.0) was 0.700. For the same compound, the “Mean Optical Densities” value (RXF 393 (Renal Cancer); Log10 Concentration −8.0) was 0.766, the “Mean Optical Densities” value (COLO 205 (Colon Cancer); Log10 Concentration −4.0) was 0.239 and the “Mean Optical Densities” value (COLO 205 (Colon Cancer); Log10 Concentration −5.0) was 0.104. For the same compound, the “Percent Growth” value (COLO 205 (Colon Cancer); Log10 Concentration −5.0) was −53%, the “Mean Optical Densities” value (COLO 205 (Colon Cancer); Log10 Concentration −6.0) was 0.916 and the “Percent Growth” value (COLO 205 (Colon Cancer); Log10 Concentration −6.0) was 58%. The “Mean Optical Densities” value (COLO 205 (Colon Cancer); Log10 Concentration −7.0) was 1.252, the “Percent Growth” value (COLO 205 (Colon Cancer); Log10 Concentration −7.0) was 87% and the “Mean Optical Densities” value (COLO 205 (Colon Cancer); Log10 Concentration −8.0) was 1.286. For the same compound, the “Percent Growth” value (COLO 205 (Colon Cancer); Log10 Concentration −8.0) was 89%, the TGI (SK-MEL-5 (Melanoma)) was 3.02E−06 and the “Mean Optical Densities” value (SK-MEL-5 (Melanoma); Log10 Concentration −4.0) was 0.364. For the same compound, the “Mean Optical Densities” value (SK-MEL-5 (Melanoma); Log10 Concentration −5.0) was 0.136, the “Percent Growth” value (SK-MEL-5 (Melanoma); Log10 Concentration −5.0) was −75% and the “Mean Optical Densities” value (SK-MEL-5 (Melanoma); Log10 Concentration −6.0) was 1.659. The “Percent Growth” value (SK-MEL-5 (Melanoma); Log10 Concentration −6.0) was 69%, the “Mean Optical Densities” value (SK-MEL-5 (Melanoma); Log10 Concentration −7.0) was 1.958 and the “Percent Growth” value (SK-MEL-5 (Melanoma); Log10 Concentration −7.0) was 88%. For the same compound, the “Mean Optical Densities” value (SK-MEL-5 (Melanoma); Log10 Concentration −8.0) was 1.995, the “Percent Growth” value (SK-MEL-5 (Melanoma); Log10 Concentration −8.0) was 91% and the TGI [2] was 3.14E−06. The “Mean Optical Densities” value ([2]; Log10 Concentration −4.0) was 0.347, the “Mean Optical Densities” value ([2]; Log10 Concentration −5.0) was 0.127 and the “Percent Growth” value ([2]; Log10 Concentration −5.0) was −69%. For the same compound, the “Mean Optical Densities” value ([2]; Log10 Concentration −6.0) was 1.126, the “Percent Growth” value ([2]; Log10 Concentration −6.0) was 68% and the “Mean Optical Densities” value ([2]; Log10 Concentration −7.0) was 1.447. The “Percent Growth” value ([2]; Log10 Concentration −7.0) was 98%, the “Mean Optical Densities” value ([2]; Log10 Concentration −8.0) was 1.502 and the “Percent Growth” value ([2]; Log10 Concentration −8.0) was 103%. For the same compound, the TGI [3] was 2.77E−06, the “Mean Optical Densities” value ([3]; Log10 Concentration −4.0) was 0.306 and the “Mean Optical Densities” value ([3]; Log10 Concentration −5.0) was 0.173. For the same compound, the “Percent Growth” value ([3]; Log10 Concentration −5.0) was −73%, the “Mean Optical Densities” value ([3]; Log10 Concentration −6.0) was 0.843 and the “Percent Growth” value ([3]; Log10 Concentration −6.0) was 58%. For the same compound, the “Mean Optical Densities” value ([3]; Log10 Concentration −7.0) was 0.889, the “Percent Growth” value ([3]; Log10 Concentration −7.0) was 71% and the “Mean Optical Densities” value ([3]; Log10 Concentration −8.0) was 0.988. For the same compound, the “Percent Growth” value ([3]; Log10 Concentration −8.0) was 100%.

— US8741944B2, “Anti-infective agents against intracellular pathogens” (priority 2007, dated 2014)
